# Reference: paper PMC6332508, “A Promising PET Tracer for Imaging of α7 Nicotinic Acetylcholine Receptors in the Brain: Design, Synthesis, and in Vivo Evaluation of a Dibenzothiophene-Based Radioligand” (Molecules, 2015)
# Assays:
# α7 nAChR = target: T1, α7 nAChR (Macaca mulatta, UniProt Q866A2); assay: Comparative PET study in a rhesus monkey; assay type: in vivo, rhesus monkey (Macaca mulatta)
# T1 construct: from tissue; host or cells: brain of a living rhesus monkey
# Procedure: One male rhesus monkey (Macaca mulatta, 6 years old, body weight = 10 kg) underwent two PET imaging sessions with [^18F]10a and [^18F]10b, respectively. The scans were conducted 19 days apart. The monkey was initially sedated by intramuscular ketamine at 10 mg∙kg^−1 at ~2 h before the PET scan and anesthetized by 1.5%–3% isoflurane throughout the imaging session. PET scan was performed using a FOCUS-220 PET scanner (Siemens Preclinical Solutions, Knoxville, TN, USA). After a transmission scan, 167 MBq of [^18F]10a (specific activity of 362 GBq∙μmol^−1) or 185 MBq of [^18F]10b (specific activity of 159 GBq·μmol^−1) were administered intravenously. Emission data were acquired in list mode for 240 min. Raw list-mode PET data was histogrammed (frames of 6 × 30 s; 3 × 1 min; 2 × 2 min; 46 × 5 min to scan termination) and reconstructed with 2D filtered back projection, using a 0.15 cm^−1 Shepp filter and including corrections for scanner normalization, detector dead time, randoms, and radiation scatter and attenuation. The PET images were then registered to MR images, acquired with a Siemens 3 T Trio scanner, with a 6-parameter rigid body registration. The MR native space was then normalized using nonlinear affine registration to a high-resolution rhesus monkey atlas using BioImage Suite 3.01 (http://www.bioimagesuite.org/index.html). Time-activity curves were extracted by mapping atlas-defined regions to PET native space using the optimal transformation matrices calculated in the registration and normalization steps. Regions extracted included amygdala, caudate, cerebellum, cingulate, cortical regions (frontal, occipital, and temporal cortex), hippocampus, putamen, thalamus, and pons.
# [1] = Metabolite analysis in pig plasma; assay type: in vivo, pigs
# Procedure: To control the quality of the K[^18F]F-Kryptofix®222/K2CO3-complex, reactions using ethylene glycol ditosylate were performed randomly. Radio-TLC of [^18F]10a and [^18F]10b was performed on Polygram® ALOX N/UV254 plates (Macherey-Nagel GmbH & Co. KG) with dichloromethane/methanol (9:1, v/v). The spots of the references were visualized using UV light at 254 nm.
# Arterial blood was sampled using a peristaltic pump during the first 20 min of the scan followed by manual sampling at 25, 30, 40, 50, 60, 90, 120, 150, 180, 210, and 240 min after injection. Plasma was obtained by centrifugation (13,000 rpm, 2 min at 21 °C) and total radioactivity concentration was measured using a gamma-counter (1470 Wizard; PerkinElmer, Shelton, CT, USA) cross-calibrated to the PET scanner. […]
# The plasma input function was corrected for the presence of radioactive metabolites by determination of the parent fraction as described previously. Plasma samples were de-proteinized by addition of ice-cold acetonitrile (500 μL MeCN/100 μL plasma) followed by centrifugation (13,000 rpm, 10 min). Aliquots of the original plasma sample and of the supernatant obtained after centrifugation were counted for radioactivity, and the supernatant was analyzed by radio-HPLC following the chromatographic methods described in quality control. The parent fraction as a function of time was fitted iteratively with the Levenberg-Marquardt algorithm, including decay correction, to calculate metabolite corrected input function.
# [2] = In vitro radiochemical stability; assay type: physicochemical; conditions: 40 °C, up to 90 min
# Procedure: in vitro radiochemical stability of [^18F]10a was investigated in 0.9% NaCl solution, PBS (pH 7.2), and 0.01 M Tris-HCl (pH 7.4 at 21 °C) at 40 °C and in EtOH at room temperature for up to 90 min. Samples were taken at 15, 30, 60, and 90 min of incubation time and analyzed by radio-TLC and radio-HPLC. Log D7.2 of [^18F]10a was experimentally determined in n-octanol/phosphate-buffered saline (PBS; 0.01 M, pH 7.2) at room temperature by the shake-flask method in multiple distribution. Measurement was performed twice in triplicate.
# T1 sequence (Q866A2 23-502): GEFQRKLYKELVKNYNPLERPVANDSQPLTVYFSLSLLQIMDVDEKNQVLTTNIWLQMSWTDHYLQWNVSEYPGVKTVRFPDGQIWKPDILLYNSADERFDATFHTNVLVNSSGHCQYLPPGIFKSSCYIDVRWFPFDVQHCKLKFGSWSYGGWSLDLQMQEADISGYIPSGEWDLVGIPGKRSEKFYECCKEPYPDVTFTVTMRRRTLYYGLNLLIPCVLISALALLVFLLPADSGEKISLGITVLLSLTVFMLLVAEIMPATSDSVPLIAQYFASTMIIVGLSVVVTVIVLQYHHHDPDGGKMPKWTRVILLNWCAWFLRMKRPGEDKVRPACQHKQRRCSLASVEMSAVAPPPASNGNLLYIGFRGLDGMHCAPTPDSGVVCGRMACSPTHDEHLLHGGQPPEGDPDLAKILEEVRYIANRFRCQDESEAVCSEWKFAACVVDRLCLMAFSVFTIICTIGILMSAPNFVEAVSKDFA
compound,measurement,setting,value
O=S1(=O)c2ccc([18F])cc2-c2ccc(N3CCN4CCC3CC4)cc21 [[^18F]10a],total volume of distribution VT,α7 nAChR; cerebellum,28.5 mL∙cm^−3
same,total volume of distribution VT,α7 nAChR; thalamus,48.1 mL∙cm^−3
same,Parent fraction of total radioactivity in plasma,[1]; 2 min p.i.,88%
same,Parent fraction of total radioactivity in plasma,[1]; 60 min p.i.,24%
same,Parent fraction of total radioactivity in plasma,[1]; 120 min p.i.,19%
same,stability in physiological solutions and organic solvents,[2],stable
